The source of these data is patent US20050240041A1, “Palm-based hydroxy fatty acid” (priority 2004, published 2005).

“Also recorded” adds a separate entry of the source.

For data set [1] the following is noted: cited from earlier work.
Data set [2] is described as follows: in-vitro dermal (skin) irritection test. As for the experimental part:
(§1) The purified palm DHSA obtained in the laboratory was subjected to in-vitro and in-vivo dermal irritection test which confirmed that the compound is non irritant, and thus suitable as one of the ingredients used in cosmetic products. The details of the current invention is described below.
In the recrystallization technique, the crude DHSA is dissolved in the solvent with a slight heating of the mixture (about 50° C. to 60° C.). The solution is left to cool down gradually to ambient temperature and further cooled at about 10° C. to 15° C. to ensure maximum yield. The precipitate obtained is filtered and dried. The product referred to, as purified palm DHSA is a white powdery solid with waxy sensation. The non-irritancy properly was conducted through in vitro derived skin irritection study.

A short description of data set [3]: in-vivo dermal irritection test.
Text: as §1

Take `CCCCCCCCC(O)C(O)CCCCCCCC(=O)O` (stereo not drawn) [9,10-dihydroxystearic acid]: in data set [1] (ether), the solubility in ether entry is recorded as “slightly soluble”. The “solubility in hot alcohol or acetone” value in data set [1] (hot alcohol or acetone) is “soluble”. In addition, the solubility in water result in data set [1] (water) is given as “insoluble”.

In the case of `CCCCCCCCC(O)C(O)CCCCCCCC(=O)O` (stereo not drawn) [purified DHSA, 9,10-dihydroxystearic acid], the irritancy result in data set [2] (test not named at this place) is recorded as “non-irritant”.

On to `CCCCCCCCC(O)C(O)CCCCCCCC(=O)O` (stereo not drawn) [purified palm DHSA, 9,10-dihydroxystearic acid], for which the dermal irritancy entry is “non irritant” in data set [3] and “non irritant; also recorded: non-irritant” in data set [2] (in vitro dermal/skin irritection study).
